Test results: PubChem BioAssay AID248 (DTP/NCI, 2004)
Where “and” joins values, the source holds several entries; their conditions need not be identical. Equal entries are not always repeated. Inconclusive results and toxic doses are left out. Cut-off read from the data, not from the text of the source: active = T/C of 150% or more; inactive = T/C below 125%. Peptide text beside a SMILES is read from it.

Test system: L1210 leukemia ip in BDF1 mice, survival T/C
Test: NCI In Vivo Anticancer Drug Screen. Data for tumor model L1210 Leukemia (intraperitoneal) in B6D2F1 (BDF1) mice
Conditions: endpoint: mean survival time, higher = longer survival
Outline: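 Tumor was transplanted into mice, which were then dosed with test compound or vehicle alone. Survival was recorded for each group, and the treated figure was expressed relative to the control figure.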

[1] = dose: 50.0 mg/kg/injection, schedule: Q01DX001 (ip), vehicle: saline
[2] = dose: 100.0 mg/kg/injection, schedule: Q01DX001 (ip), vehicle: saline
[3] = dose: 200.0 mg/kg/injection, schedule: Q01DX001 (ip), vehicle: saline
[4] = dose: 400.0 mg/kg/injection, schedule: Q01DX001 (ip), vehicle: saline
[5] = dose: 100.0 mg/kg/injection, schedule: Q01DX009 (ip), vehicle: Klucel (hydroxypropylcellulose) (HPC)
[6] = dose: 100.0 mg/kg/injection, schedule: Q01DX001 (ip), vehicle: Klucel (hydroxypropylcellulose) (HPC)
[7] = dose: 200.0 mg/kg/injection, schedule: Q01DX001 (ip), vehicle: Klucel (hydroxypropylcellulose) (HPC)
[8] = dose: 50.0 mg/kg/injection, schedule: Q04DX003 (ip), vehicle: saline with Tween-80
[9] = dose: 100.0 mg/kg/injection, schedule: Q01DX009 (ip), vehicle: saline with Tween-80
[10] = dose: 100.0 mg/kg/injection, schedule: Q04DX003 (ip), vehicle: saline with Tween-80
[11] = dose: 200.0 mg/kg/injection, schedule: Q01DX009 (ip), vehicle: saline with Tween-80
[12] = dose: 200.0 mg/kg/injection, schedule: Q04DX003 (ip), vehicle: saline with Tween-80
[13] = dose: 400.0 mg/kg/injection, schedule: Q04DX003 (ip), vehicle: saline with Tween-80
[14] = dose: 100.0 mg/kg/injection, schedule: Q04DX002 (ip), vehicle: Klucel (hydroxypropylcellulose) (HPC)
[15] = dose: 100.0 mg/kg/injection, schedule: Q04DX003 (ip), vehicle: saline
[16] = dose: 200.0 mg/kg/injection, schedule: Q04DX003 (ip), vehicle: saline
[17] = dose: 400.0 mg/kg/injection, schedule: Q01DX009 (ip), vehicle: saline with Tween-80
[18] = dose: 400.0 mg/kg/injection, schedule: Q04DX003 (ip), vehicle: saline
[19] = dose: 50.0 mg/kg/injection, schedule: Q04DX002 (ip), vehicle: saline
[20] = dose: 100.0 mg/kg/injection, schedule: Q04DX002 (ip), vehicle: saline
[21] = dose: 25.0 mg/kg/injection, schedule: Q04DX003 (ip), vehicle: saline with Tween-80

Measured: T/C

Cc1ccc(C2(C)CCC(=O)c3cc(C)c(C)cc32)cc1C (stereo not given)
inactive: [1] 97 % of control | [2] 100 % of control | [3] 94 % of control | [4] 103 % of control

Cc1c2ccccc2c(C)c2c1cc(O)c1ccccc12
inactive: dose: 50.0 mg/kg/injection, schedule: Q01DX009 (ip), vehicle: Klucel (hydroxypropylcellulose) (HPC) 113 % of control | [5] 121 % of control

N#Cc1ccc(-c2ccccc2)cc1
inactive: dose: 50.0 mg/kg/injection, schedule: Q04DX002 (ip), vehicle: other 103 % of control | dose: 100.0 mg/kg/injection, schedule: Q04DX002 (ip), vehicle: other 95 % of control | dose: 200.0 mg/kg/injection, schedule: Q04DX002 (ip), vehicle: other 117 % of control

O=C(O)C(Br)CN1C(=O)c2ccccc2C1=O (stereo not given)
inactive: dose: 50.0 mg/kg/injection, schedule: Q01DX009 (ip), vehicle: saline 91 % of control | dose: 100.0 mg/kg/injection, schedule: Q01DX009 (ip), vehicle: saline 95 % of control | dose: 200.0 mg/kg/injection, schedule: Q01DX009 (ip), vehicle: saline 91 % of control

COc1ccc(/C=C/c2cnnc3ccccc23)cc1OC
inactive: [6] 113 % of control | [7] 98 % of control

O=C1NC(=O)C2(CCCCCC2)N1
inactive: dose: 50.0 mg/kg/injection, schedule: Q01DX009 (ip), vehicle: saline with Tween-80 101 % of control | [8] 105 % of control | dose: 100.0 mg/kg/injection, schedule: Q01DX009 (ip), vehicle: saline sonified 90 % of control | [9] 101 % of control | [10] 99 % of control and 111 % of control | dose: 200.0 mg/kg/injection, schedule: Q01DX009 (ip), vehicle: saline sonified 96 % of control | [11] 98 % of control | [12] 100 % of control and 110 % of control | dose: 400.0 mg/kg/injection, schedule: Q01DX009 (ip), vehicle: saline sonified 98 % of control | [13] 106 % of control

CCCCN(CCCC)CCNCC(Cc1ccccc1)c1ccccc1 (stereo not given)
inactive: [14] 93 % of control

c1ccc(-c2cccc([Si](c3ccccc3)(c3ccccc3)c3cccc(-c4ccccc4)c3)c2)cc1
inactive: [10] 92 % of control | [12] 88 % of control | [13] 97 % of control

Nc1nc(C=O)c(CCc2ccccc2)c(=O)[nH]1
inactive: [10] 100 % of control | [12] 97 % of control

C(/C=C\c1ccccc1)=Nc1ccccc1
inactive: [10] 95 % of control | [12] 95 % of control | [13] 92 % of control

O=C1NC2CC=CCC12 (stereo not given)
inactive: [9] 91 % of control | [15] 101 % of control | [11] 89 % of control | [16] 101 % of control | [17] 89 % of control | [18] 94 % of control

CCOC(=O)C[n+]1ccccc1C
inactive: [19] 90 % of control | [20] 97 % of control | dose: 200.0 mg/kg/injection, schedule: Q04DX002 (ip), vehicle: saline 93 % of control

Cc1ccc(S(=O)(=O)OC2(C(=O)c3ccccc3)CC3CCC2C3)cc1 (stereo not given)
inactive: dose: 50.0 mg/kg/injection, schedule: Q01DX001 (ip), vehicle: Klucel (hydroxypropylcellulose) (HPC) 93 % of control | [6] 96 % of control | [7] 94 % of control

Nc1ccc(NC=O)c(Cl)c1
inactive: [15] 102 % of control | [16] 108 % of control | [18] 102 % of control

CCC1(CC)N=C2OCCN2C1=O
inactive: dose: 12.5 mg/kg/injection, schedule: Q04DX003 (ip), vehicle: saline with Tween-80 97 % of control | [21] 95 % of control | [8] 97 % of control | [10] 94 % of control | [12] 91 % of control and 92 % of control | dose: 300.0 mg/kg/injection, schedule: Q04DX003 (ip), vehicle: saline with Tween-80 106 % of control

NC(N)=NCCCC(N)C(=O)NC(CCC(=O)O)C(=O)O (stereo not drawn) (H-Arg-Glu-OH; configuration not given here)
inactive: dose: 25.0 mg/kg/injection, schedule: Q04DX002 (ip), vehicle: saline 98 % of control | [19] 121 % of control | [20] 110 % of control

CC1CC(=O)NC(=O)N1 (stereo not given)
inactive: [9] 98 % of control | [10] 105 % of control | [11] 100 % of control | [12] 93 % of control | [17] 106 % of control | [13] 107 % of control

CC(C)CC(=O)/C=C/C=C/c1ccccc1
inactive: dose: 100.0 mg/kg/injection, schedule: Q04DX002 (ip), vehicle: saline with Tween-80 101 % of control | dose: 200.0 mg/kg/injection, schedule: Q04DX002 (ip), vehicle: saline with Tween-80 95 % of control | dose: 400.0 mg/kg/injection, schedule: Q04DX002 (ip), vehicle: saline with Tween-80 111 % of control

O=[As](O)(c1cccc(Cl)c1)C1CCCCC1O (stereo not given)
inactive: [21] 91 % of control | [8] 89 % of control

O=C1c2cc(Cl)cc(Cl)c2-c2c(NC(=O)C(Cl)Cl)cc(Cl)cc21
inactive: [5] 91 % of control | dose: 100.0 mg/kg/injection, schedule: Q04DX003 (ip), vehicle: Klucel (hydroxypropylcellulose) (HPC) 95 % of control | dose: 200.0 mg/kg/injection, schedule: Q04DX003 (ip), vehicle: Klucel (hydroxypropylcellulose) (HPC) 98 % of control | dose: 400.0 mg/kg/injection, schedule: Q04DX003 (ip), vehicle: Klucel (hydroxypropylcellulose) (HPC) 93 % of control

N/N=C(\c1ccccc1)c1ccccn1
inactive: dose: 55.0 mg/kg/injection, schedule: Q01DX Z (ip), vehicle: methylcellulose (MC) 103 % of control | dose: 83.0 mg/kg/injection, schedule: Q01DX Z (ip), vehicle: methylcellulose (MC) 97 % of control | dose: 125.0 mg/kg/injection, schedule: Q01DX Z (ip), vehicle: methylcellulose (MC) 90 % of control

Cc1ccc(S(=O)(=O)O/N=C(/C#N)c2ccccc2)cc1
inactive: [14] 111 % of control | dose: 200.0 mg/kg/injection, schedule: Q04DX002 (ip), vehicle: Klucel (hydroxypropylcellulose) (HPC) 97 % of control | dose: 400.0 mg/kg/injection, schedule: Q04DX002 (ip), vehicle: Klucel (hydroxypropylcellulose) (HPC) 101 % of control

COc1ccc(C2N(C=O)CC34CC(=O)C=CC23C4)cc1O (stereo not given)
inactive: [15] 95 % of control | [16] 93 % of control | [18] 95 % of control

COC(C/C=C\C=C\CC/C=C/CC(C)/C=C/C(=C\C(=O)O)CC(=O)O)/C(C)=C\C=C(/C)C(=O)O (stereo not given)
inactive: dose: 0.5 mg/kg/injection, schedule: Q01DX001 (ip), vehicle: saline 101 % of control | dose: 1.0 mg/kg/injection, schedule: Q01DX001 (ip), vehicle: saline 102 % of control | dose: 2.0 mg/kg/injection, schedule: Q01DX001 (ip), vehicle: saline 102 % of control | dose: 4.0 mg/kg/injection, schedule: Q01DX001 (ip), vehicle: saline 104 % of control | dose: 8.0 mg/kg/injection, schedule: Q01DX001 (ip), vehicle: saline 101 % of control

O=C(CCCC(=O)N/N=C/c1cc([N+](=O)[O-])ccc1O)N/N=C\c1cc([N+](=O)[O-])ccc1O
inactive: [1] 96 % of control | [2] 104 % of control | [3] 102 % of control | [4] 98 % of control
